Reference: PubChem BioAssay (NCI)
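Method: 48-hour compound exposure of cells in 96-well plates, five concentrations, linear interpolation of endpoints. Abbreviation: GI50, concentration required for 50% inhibition of growth. TGI denotes the concentration required for complete inhibition of growth.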

What was measured:
Assay in all cases: NCI-60 cell line screen, 48 h
[1] = system: SN12C renal
[2] = system: M14 melanoma
[3] = system: HS 578T breast
[4] = system: SNB-19 CNS
[5] = system: HCC-2998 colon
[6] = system: K-562 leukemia
[7] = system: SNB-75 CNS
[8] = system: LOX IMVI melanoma
[9] = system: RXF 393 renal
[10] = system: 786-0 renal
[11] = system: DU-145 prostate
[12] = system: SK-MEL-5 melanoma
[13] = system: SK-MEL-28 melanoma
[14] = system: UO-31 renal
[15] = system: BT-549 breast
[16] = system: NCI-H23 lung
[17] = system: SR leukemia
[18] = system: MCF7 breast
[19] = system: HCT-116 colon
[20] = system: A549 NSCLC
[21] = system: NCI-H226 lung
[22] = system: UACC-62 melanoma
[23] = system: SW-620 colon
[24] = system: TK-10 renal
[25] = system: MDA-MB-435
[26] = system: NCI/ADR-RES ovarian
[27] = system: EKVX NSCLC
[28] = system: MDA-MB-231 breast
[29] = system: UACC-257 melanoma
[30] = system: ACHN renal
[31] = system: HT29 colon
[32] = system: SF-295 CNS
[33] = system: HOP-92 NSCLC
[34] = system: T-47D breast
[35] = system: SF-539 CNS
[36] = system: RPMI-8226 leukemia
[37] = system: U251 CNS
[38] = system: SK-OV-3 ovarian
[39] = system: NCI-H460 lung
[40] = system: PC-3 prostate
[41] = system: OVCAR-8 ovarian
[42] = system: OVCAR-3 ovarian
[43] = system: COLO 205 colon
[44] = system: SK-MEL-2 melanoma
[45] = system: A498 renal
[46] = system: HCT-15 colon
[47] = system: HOP-62 NSCLC
[48] = system: OVCAR-5 ovarian
[49] = system: KM12 colon
[50] = system: HL-60(TB) leukemia
[51] = system: NCI-H522 lung
[52] = system: CAKI-1 renal
[53] = system: IGROV1 ovarian
[54] = system: SF-268 CNS
[55] = system: CCRF-CEM leukemia
[56] = system: MOLT-4 leukemia
[57] = system: OVCAR-4 ovarian
[58] = system: MALME-3M melanoma

**Q.** For `O=C(NNc1nc2cc(F)cc(F)c2n2cccc12)c1ncccn1`, which GI50 [1] is on record?
**A.** 1.2 µM

**Q.** What about the TGI [1] of the same compound?
**A.** > 30 µM

**Q.** And the GI50 [2]?
**A.** 0.39 µM

**Q.** What about the TGI [2] of the same compound?
**A.** 5.62 µM

**Q.** What about the GI50 [3] of the same compound?
**A.** 3.18 µM

**Q.** And the TGI [3]?
**A.** > 28.6 µM

**Q.** What about the GI50 [4] of the same compound?
**A.** 0.688 µM

**Q.** And the TGI [4]?
**A.** > 30 µM

**Q.** And the GI50 [5]?
**A.** 0.863 µM

**Q.** And the TGI [5]?
**A.** > 30 µM

**Q.** What about the GI50 [6] of the same compound?
**A.** 1 µM

**Q.** What about the TGI [6] of the same compound?
**A.** > 30 µM

**Q.** What about the GI50 [7] of the same compound?
**A.** 0.793 µM

**Q.** What about the TGI [7] of the same compound?
**A.** > 27.6 µM

**Q.** What about the GI50 [8] of the same compound?
**A.** 0.487 µM

**Q.** And the TGI [8]?
**A.** 15.8 µM

**Q.** What about the GI50 [9] of the same compound?
**A.** 1.31 µM

**Q.** And the TGI [9]?
**A.** 5.64 µM

**Q.** And the GI50 [10]?
**A.** 0.901 µM

**Q.** And the TGI [10]?
**A.** > 14.8 µM

**Q.** What about the GI50 [11] of the same compound?
**A.** 0.751 µM

**Q.** And the TGI [11]?
**A.** > 30 µM

**Q.** What about the GI50 [12] of the same compound?
**A.** 0.584 µM

**Q.** What about the TGI [12] of the same compound?
**A.** 2.86 µM

**Q.** And the GI50 [13]?
**A.** 0.682 µM

**Q.** And the TGI [13]?
**A.** > 30 µM

**Q.** What about the GI50 [14] of the same compound?
**A.** 0.116 µM

**Q.** What about the TGI [14] of the same compound?
**A.** 3.67 µM

**Q.** And the GI50 [15]?
**A.** 1.04 µM

**Q.** And the TGI [15]?
**A.** 17 µM

**Q.** What about the GI50 [16] of the same compound?
**A.** 1.35 µM

**Q.** And the TGI [16]?
**A.** > 30 µM

**Q.** And the GI50 [17]?
**A.** 0.221 µM

**Q.** And the TGI [17]?
**A.** > 30 µM

**Q.** And the GI50 [18]?
**A.** 0.862 µM

**Q.** And the TGI [18]?
**A.** 10.7 µM

**Q.** What about the GI50 [19] of the same compound?
**A.** 0.341 µM

**Q.** What about the TGI [19] of the same compound?
**A.** > 21.1 µM

**Q.** What about the GI50 [20] of the same compound?
**A.** 0.437 µM

**Q.** And the TGI [20]?
**A.** 8.67 µM

**Q.** What about the GI50 [21] of the same compound?
**A.** 0.585 µM

**Q.** What about the TGI [21] of the same compound?
**A.** 6.67 µM

**Q.** What about the GI50 [22] of the same compound?
**A.** 0.377 µM

**Q.** What about the TGI [22] of the same compound?
**A.** > 9.21 µM

**Q.** And the GI50 [23]?
**A.** 1.01 µM

**Q.** And the TGI [23]?
**A.** > 30 µM

**Q.** And the GI50 [24]?
**A.** 0.427 µM

**Q.** And the TGI [24]?
**A.** 8.02 µM

**Q.** What about the GI50 [25] of the same compound?
**A.** 1.24 µM

**Q.** What about the TGI [25] of the same compound?
**A.** > 30 µM

**Q.** And the GI50 [26]?
**A.** 0.218 µM

**Q.** What about the TGI [26] of the same compound?
**A.** 10.3 µM

**Q.** What about the GI50 [27] of the same compound?
**A.** 0.409 µM

**Q.** And the TGI [27]?
**A.** 8.71 µM

**Q.** What about the GI50 [28] of the same compound?
**A.** 1.22 µM

**Q.** And the TGI [28]?
**A.** > 25.3 µM

**Q.** And the GI50 [29]?
**A.** 1.18 µM

**Q.** And the TGI [29]?
**A.** 15.7 µM

**Q.** What about the GI50 [30] of the same compound?
**A.** 0.164 µM

**Q.** And the TGI [30]?
**A.** 3.83 µM

**Q.** And the GI50 [31]?
**A.** 0.94 µM

**Q.** And the TGI [31]?
**A.** > 30 µM

**Q.** And the GI50 [32]?
**A.** 0.176 µM

**Q.** What about the TGI [32] of the same compound?
**A.** 4.99 µM

**Q.** What about the GI50 [33] of the same compound?
**A.** 1.24 µM

**Q.** What about the TGI [33] of the same compound?
**A.** 20.7 µM

**Q.** And the GI50 [34]?
**A.** 1.06 µM

**Q.** What about the TGI [34] of the same compound?
**A.** 22.7 µM

**Q.** And the GI50 [35]?
**A.** 0.728 µM

**Q.** What about the TGI [35] of the same compound?
**A.** > 16.6 µM

**Q.** What about the GI50 [36] of the same compound?
**A.** 1.18 µM

**Q.** And the TGI [36]?
**A.** > 30 µM

**Q.** And the GI50 [37]?
**A.** 0.282 µM

**Q.** What about the TGI [37] of the same compound?
**A.** > 19.1 µM

**Q.** What about the GI50 [38] of the same compound?
**A.** 0.443 µM

**Q.** And the TGI [38]?
**A.** 9.81 µM

**Q.** What about the GI50 [39] of the same compound?
**A.** 0.212 µM

**Q.** And the TGI [39]?
**A.** 3.9 µM

**Q.** And the GI50 [40]?
**A.** 0.786 µM

**Q.** What about the TGI [40] of the same compound?
**A.** > 26.8 µM

**Q.** What about the GI50 [41] of the same compound?
**A.** 0.509 µM

**Q.** And the TGI [41]?
**A.** > 30 µM

**Q.** And the GI50 [42]?
**A.** 0.73 µM

**Q.** What about the TGI [42] of the same compound?
**A.** > 30 µM

**Q.** And the GI50 [43]?
**A.** 0.773 µM

**Q.** What about the TGI [43] of the same compound?
**A.** > 30 µM

**Q.** What about the GI50 [44] of the same compound?
**A.** 2.95 µM

**Q.** And the TGI [44]?
**A.** 30 µM

**Q.** And the GI50 [45]?
**A.** 1.2 µM

**Q.** What about the TGI [45] of the same compound?
**A.** 5.85 µM

**Q.** What about the GI50 [46] of the same compound?
**A.** 0.121 µM

**Q.** What about the TGI [46] of the same compound?
**A.** 6.21 µM

**Q.** And the GI50 [47]?
**A.** 0.226 µM

**Q.** And the TGI [47]?
**A.** 22.4 µM

**Q.** What about the GI50 [48] of the same compound?
**A.** 1.18 µM

**Q.** What about the TGI [48] of the same compound?
**A.** > 30 µM

**Q.** And the GI50 [49]?
**A.** 0.537 µM

**Q.** And the TGI [49]?
**A.** > 30 µM

**Q.** What about the GI50 [50] of the same compound?
**A.** 0.803 µM

**Q.** And the TGI [50]?
**A.** 5.07 µM

**Q.** And the GI50 [51]?
**A.** 1.03 µM

**Q.** What about the TGI [51] of the same compound?
**A.** > 17 µM

**Q.** And the GI50 [52]?
**A.** 0.336 µM

**Q.** And the TGI [52]?
**A.** 9.5 µM

**Q.** And the GI50 [53]?
**A.** 0.42 µM

**Q.** What about the TGI [53] of the same compound?
**A.** 22.4 µM

**Q.** What about the GI50 [54] of the same compound?
**A.** 0.521 µM

**Q.** And the TGI [54]?
**A.** > 30 µM

**Q.** And the GI50 [55]?
**A.** 0.327 µM

**Q.** What about the TGI [55] of the same compound?
**A.** > 30 µM

**Q.** What about the GI50 [56] of the same compound?
**A.** 0.613 µM

**Q.** And the TGI [56]?
**A.** > 30 µM

**Q.** What about the GI50 [57] of the same compound?
**A.** 0.801 µM

**Q.** What about the TGI [57] of the same compound?
**A.** > 23.7 µM

**Q.** And the GI50 [58]?
**A.** 1.05 µM

**Q.** What about the TGI [58] of the same compound?
**A.** 19.6 µM
